Assay results taken from patent US9259001B2, “5-phenyl-substituted N-(tetrazol-5-yl) aryl carboxylic acid amides and N-(triazol-5-yl) aryl carboxylic acid amides, and use thereof as herbicides” (BAYER INTELLECTUAL PROPERTY GMBH, priority 2011, dated 2016).

Assays:
Assay in all cases: Comparative tests by the post-emergence method
Format in all cases: in vivo
Veronica persica = tested on: Veronica persica
Protocol: (§1) Seeds of monocotyledonous and dicotyledonous weed and crop plants are placed in sandy loam in wood-fiber pots, covered with soil and cultivated in a greenhouse under good growth conditions. 2 to 3 weeks after sowing, the test plants are treated at the one-leaf stage. The inventive compounds formulated in the form of wettable powders (WP) or as emulsion concentrates (EC) are then sprayed onto the green parts of the plants as an aqueous suspension or emulsion at a water application rate of 600 to 800 I/ha (converted) with addition of 0.2% wetting agent. After the test plants have been left to stand in the greenhouse under optimal growth conditions for about 3 weeks, the action of the formulations is assessed visually in comparison to untreated controls (herbicidal action in percent (%): 100% activity=the plants have died, 0% activity=like control plants). Here, the compounds Nos. 1-02, 1-03, 1-05, 1-06, 1-14, 1-15, 2-01, 2-02, 2-03, 2-04, 2-05, 2-06, 2-16, 2-17, 2-18, 2-19, 2-20, 2-21, 2-22, 2-23, 2-24, 2-25, 2-26, 2-27, 2-28, 2-29, 2-30, 2-31, 2-33, 2-34, 2-35, 2-39, 2-40, 2-41, 2-43, 2-44, 2-45, 2-46, 2-47, 2-48, 2-49, 2-50, 2-51, 2-52, 2-53, 2-60, 2-61, 2-62, 2-63, 2-64, 2-65, 2-69 and 2-83 each show, at an application rate of 80 g/ha, an activity of at least 80% against Abutilon theophrasti and Veronica persica. The compounds Nos. 1-14, 2-32, 2-42, 2-66, 2-67, 2-69 and 2-83, at an application rate of 80 g/ha, each show an activity of at least 80% against Amaranthus retroflexus and Stellaria media.
(§2) For comparative tests, the compound No. 1-15 according to the invention and the compounds No. 118 and No. 119 known from EP 0 049 071 A1 were tested by the post-emergence method at various dosages against a number of harmful plants.

Pharbitis purpureum = tested on: Pharbitis purpureum
Protocol: as §1, §2
(§3) ABUTH Abutilon theophrasti PHBPU Pharbitis purpureum

Abutilon theophrasti = tested on: Abutilon theophrasti
Protocol: as §1, §2, §3

CCC(C)(CC)c1nnc(NC(=O)c2c(OC)cccc2OC)[nH]1 [Compound No. 118, N-[5-(1-ethyl-1-methylpropyl)-4H-1,2,4-triazol-3-yl]-2,6-dimethoxybenzamide]
Herbicidal action against VERPE (Veronica persica; dosage 5 g/ha): 0%
Herbicidal action against VERPE (Veronica persica; dosage 20 g/ha): 0%
Herbicidal action against VERPE (Veronica persica; dosage 80 g/ha): 0%
Herbicidal action against PHBPU (Pharbitis purpureum; dosage 5 g/ha): 0%
Herbicidal action against PHBPU (Pharbitis purpureum; dosage 20 g/ha): 0%
Herbicidal action against PHBPU (Pharbitis purpureum; dosage 80 g/ha): 0%
Herbicidal action against ABUTH (Abutilon theophrasti; dosage 5 g/ha): 0%
Herbicidal action against ABUTH (Abutilon theophrasti; dosage 20 g/ha): 0%
Herbicidal action against ABUTH (Abutilon theophrasti; dosage 80 g/ha): 0%

COc1cccc(OC)c1C(=O)Nc1nc[nH]n1 [Compound No. 119, N-(1H-1,2,4-triazol-3-yl)-2,6-dimethoxybenzamide]
Herbicidal action against VERPE (Veronica persica; dosage 5 g/ha): 0%
Herbicidal action against VERPE (Veronica persica; dosage 20 g/ha): 0%
Herbicidal action against VERPE (Veronica persica; dosage 80 g/ha): 0%
Herbicidal action against PHBPU (Pharbitis purpureum; dosage 5 g/ha): 0%
Herbicidal action against PHBPU (Pharbitis purpureum; dosage 20 g/ha): 0%
Herbicidal action against PHBPU (Pharbitis purpureum; dosage 80 g/ha): 0%
Herbicidal action against ABUTH (Abutilon theophrasti; dosage 5 g/ha): 0%
Herbicidal action against ABUTH (Abutilon theophrasti; dosage 20 g/ha): 0%
Herbicidal action against ABUTH (Abutilon theophrasti; dosage 80 g/ha): 0%

Cc1cc(C(=O)Nc2ncnn2C)c(Cl)cc1S(C)(=O)=O [No. 1-15]
Herbicidal action against VERPE (Veronica persica; dosage 5 g/ha): 40%
Herbicidal action against VERPE (Veronica persica; dosage 20 g/ha): 80%
Herbicidal action against VERPE (Veronica persica; dosage 80 g/ha): 80%
Herbicidal action against PHBPU (Pharbitis purpureum; dosage 5 g/ha): 80%
Herbicidal action against PHBPU (Pharbitis purpureum; dosage 20 g/ha): 80%
Herbicidal action against PHBPU (Pharbitis purpureum; dosage 80 g/ha): 80%
Herbicidal action against ABUTH (Abutilon theophrasti; dosage 5 g/ha): 90%
Herbicidal action against ABUTH (Abutilon theophrasti; dosage 20 g/ha): 90%
Herbicidal action against ABUTH (Abutilon theophrasti; dosage 80 g/ha): 90%
